Measurements reported in ChEMBL document CHEMBL3580558, “Salternamides A-D from a Halophilic Streptomyces sp. Actinobacterium” (J Nat Prod, 2015).

Columns and labels:
[1] = Inhibition of porcine cerebral cortex Na+/K+ ATPase incubated at 37 degC for 30 mins using 3-O-methylfluorescein phosphate and […] by fluorometry; assay type: tissue-based, Sus scrofa
[2] = tested on: HCT-116; assay: Antiproliferative activity against human HCT116 cells after 3 days by sulforhodamine B assay; assay type: functional, cell-based; conditions: HCT-116, 72 h
[3] = Antiproliferative activity against human SKHEP1 cells after 3 days by sulforhodamine B assay; assay type: functional, cell-based; conditions: SK-HEP1, 72 h
[4] = tested on: K562; assay: Antiproliferative activity against human K562 cells after 3 days by sulforhodamine B assay; assay type: functional, cell-based; conditions: K562, 72 h
[5] = tested on: A549; assay: Antiproliferative activity against human A549 cells after 3 days by sulforhodamine B assay; assay type: functional, cell-based; conditions: A549, 72 h
[6] = Antiproliferative activity against human SNU638 cells after 3 days by sulforhodamine B assay; assay type: functional, cell-based; conditions: SNU-638, 72 h
[7] = tested on: MDA-MB-231; assay: Antiproliferative activity against human MDA-MB-231 cells after 3 days by sulforhodamine B assay; assay type: functional, cell-based; conditions: MDA-MB-231, 72 h

| SMILES | IC50 ([1]; read-out: IC50) [µM] | IC50 [2] [µM] | IC50 [3] [µM] | IC50 [4] [µM] | IC50 [5] [µM] | IC50 [6] [µM] | IC50 [7] [µM] | IC50 [1] |
| --- | --- | --- | --- | --- | --- | --- | --- | --- |
| CC(C)=C[C@H](C)C[C@H](C)/C=C/C(=O)NC1=C[C@](O)(CCCCC(=O)O)C=C(Cl)C1=O | 62 | 0.96 | 2.7 | 8.9 | 36 | 0.96 | 8.9 |  |
| CC(C)=C[C@H](C)C[C@H](C)/C=C/C(=O)NC1=C[C@](O)(CCCCC(=O)O)C=CC1=O |  | 55 | 56 | > 100 | 82 | 27 | 27 | Not Active |
| CC(C)=C[C@H](C)C[C@H](C)/C=C/C(=O)NC1=C[C@](O)(CCCCC(=O)O)[C@@H](O)CC1=O | > 100 | > 100 | > 100 | > 100 | > 100 | > 100 | > 100 |  |
| CC(C)=C[C@H](C)C[C@H](C)/C=C(\C)C(=O)NC1=C[C@](O)(CCCCC(=O)O)[C@@H](O)CC1=O | 30 | 34 | 32 | 59 | > 100 | 15 | 92 |  |
| COc1cc([C@@H]2c3cc4c(cc3[C@@H](O[C@@H]3O[C@@H]5CO[C@@H](C)O[C@H]5[C@H](O)[C@H]3O)[C@H]3COC(=O)[C@H]23)OCO4)cc(OC)c1O [ETOPOSIDE] |  |  | 1.1 | 3.1 | 0.8 | 0.5 | 11 |  |
| C[C@@H]1O[C@@H](O[C@H]2C[C@@H](O)[C@]3(CO)[C@H]4[C@H](O)C[C@]5(C)[C@@H](C6=CC(=O)OC6)CC[C@]5(O)[C@@H]4CC[C@]3(O)C2)[C@H](O)[C@H](O)[C@H]1O [OUABAIN] | 3.8 |  |  |  |  |  |  |  |
